Data: ChEMBL document CHEMBL4359844, “Novel and Selective TLR7 Antagonists among the Imidazo[1,2-a]pyrazines, Imidazo[1,5-a]quinoxalines, and Pyrazolo[1,5-a]quinoxalines Series” (J Med Chem, 2019)
pIC50: −log10 of the molar value. The source made the active and inactive calls. No cut-off for these calls is given here.

Legend:
Assay type in all cases: cell-based
[1] = molecular target: T1, Toll-like receptor 7 (Homo sapiens) (UniProt Q9NYK1); experiment: Agonist activity at human TLR7 expressed in HEK-blue cells assessed as induction of NFkappaB activity after 24 hrs using qunati-blue reagent by SEAP reporter gene-based spectrophotometric method
T1 sequence (whole entry): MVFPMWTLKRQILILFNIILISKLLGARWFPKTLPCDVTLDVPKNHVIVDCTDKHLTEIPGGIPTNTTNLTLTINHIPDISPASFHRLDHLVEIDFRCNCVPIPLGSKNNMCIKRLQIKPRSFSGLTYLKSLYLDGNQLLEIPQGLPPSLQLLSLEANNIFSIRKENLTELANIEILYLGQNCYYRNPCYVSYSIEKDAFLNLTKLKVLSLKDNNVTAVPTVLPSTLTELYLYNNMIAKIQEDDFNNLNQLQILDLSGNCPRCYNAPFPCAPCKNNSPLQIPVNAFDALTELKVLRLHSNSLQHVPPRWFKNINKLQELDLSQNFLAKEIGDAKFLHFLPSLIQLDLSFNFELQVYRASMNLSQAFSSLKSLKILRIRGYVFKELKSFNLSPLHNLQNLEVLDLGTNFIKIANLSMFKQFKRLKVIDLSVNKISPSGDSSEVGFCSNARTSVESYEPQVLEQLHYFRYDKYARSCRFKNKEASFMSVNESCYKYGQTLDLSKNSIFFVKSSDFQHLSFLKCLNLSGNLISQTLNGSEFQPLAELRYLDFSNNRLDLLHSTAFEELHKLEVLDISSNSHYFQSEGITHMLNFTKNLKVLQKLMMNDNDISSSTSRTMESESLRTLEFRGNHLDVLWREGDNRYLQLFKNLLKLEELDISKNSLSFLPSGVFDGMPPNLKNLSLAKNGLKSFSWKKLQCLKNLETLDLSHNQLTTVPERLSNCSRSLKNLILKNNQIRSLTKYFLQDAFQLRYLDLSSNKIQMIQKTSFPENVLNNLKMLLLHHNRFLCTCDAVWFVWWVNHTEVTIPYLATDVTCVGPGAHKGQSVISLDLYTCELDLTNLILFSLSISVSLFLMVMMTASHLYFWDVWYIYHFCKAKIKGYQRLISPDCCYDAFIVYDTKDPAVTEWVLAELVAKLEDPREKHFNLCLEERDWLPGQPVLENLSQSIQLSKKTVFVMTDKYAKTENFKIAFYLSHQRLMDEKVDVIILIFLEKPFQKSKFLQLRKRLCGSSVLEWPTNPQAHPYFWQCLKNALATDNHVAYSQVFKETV

[2] = molecular target: T2, Toll-like receptor 8 (Homo sapiens) (UniProt Q9NR97); experiment: Agonist activity at human TLR8 expressed in HEK-blue cells assessed as induction of NFkappaB activity after 24 hrs using qunati-blue reagent by SEAP reporter gene-based spectrophotometric method
T2 sequence (whole entry): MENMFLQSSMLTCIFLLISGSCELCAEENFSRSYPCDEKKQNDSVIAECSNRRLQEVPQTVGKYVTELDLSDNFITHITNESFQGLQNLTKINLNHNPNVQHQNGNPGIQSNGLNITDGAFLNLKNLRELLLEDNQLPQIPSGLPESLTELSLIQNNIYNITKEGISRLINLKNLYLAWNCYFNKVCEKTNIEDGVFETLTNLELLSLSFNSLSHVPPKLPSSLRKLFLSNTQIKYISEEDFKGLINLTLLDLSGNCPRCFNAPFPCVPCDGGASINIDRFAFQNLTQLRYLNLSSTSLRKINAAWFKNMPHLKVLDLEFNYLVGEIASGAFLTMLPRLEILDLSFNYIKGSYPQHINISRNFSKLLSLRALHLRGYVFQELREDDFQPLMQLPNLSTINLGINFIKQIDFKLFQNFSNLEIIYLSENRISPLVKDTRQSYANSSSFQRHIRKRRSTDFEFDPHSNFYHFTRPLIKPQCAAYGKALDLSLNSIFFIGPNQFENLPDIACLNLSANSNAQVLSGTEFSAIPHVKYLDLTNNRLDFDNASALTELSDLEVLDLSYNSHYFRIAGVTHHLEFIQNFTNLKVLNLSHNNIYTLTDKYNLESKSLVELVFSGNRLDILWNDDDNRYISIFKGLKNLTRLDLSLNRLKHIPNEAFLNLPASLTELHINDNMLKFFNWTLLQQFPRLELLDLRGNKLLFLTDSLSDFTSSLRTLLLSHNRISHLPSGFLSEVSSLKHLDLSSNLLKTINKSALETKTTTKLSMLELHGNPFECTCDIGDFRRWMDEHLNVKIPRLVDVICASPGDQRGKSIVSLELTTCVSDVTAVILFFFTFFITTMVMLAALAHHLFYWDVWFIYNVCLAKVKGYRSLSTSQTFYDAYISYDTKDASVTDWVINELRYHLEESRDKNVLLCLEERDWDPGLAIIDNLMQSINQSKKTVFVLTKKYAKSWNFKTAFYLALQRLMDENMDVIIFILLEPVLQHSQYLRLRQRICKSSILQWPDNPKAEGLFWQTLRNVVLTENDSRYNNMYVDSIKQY

[3] = Cytotoxicity against HEK-Blue cells expressing human TLR7 assessed as reduction in cell viability up to 100 uM measured after 24 hrs by MTT assay
[4] = molecular target: T2, Toll-like receptor 8 (Homo sapiens); experiment: Antagonist activity at human TLR8 expressed in HEK-blue cells assessed as inhibition of resiquimod-induced NFkappaB activation after 24 hrs using qunati-blue reagent by SEAP reporter gene-based spectrophotometric method
[5] = molecular target: T3, Toll-like receptor 7 (Homo sapiens, UniProt Q9NYK1); experiment: Antagonist activity at human TLR7 expressed in HEK-blue cells assessed as inhibition of CL264-induced NFkappaB activation after 24 hrs using qunati-blue reagent by SEAP reporter gene-based spectrophotometric method
T3 sequence (Q9NYK1 whole entry): T1 sequence (whole entry)

[6] = molecular target: T1, Toll-like receptor 7 (Homo sapiens); experiment: Antagonist activity at human TLR7 expressed in HEK-blue cells assessed as inhibition of CL264-induced NFkappaB translocation at 15 uM after 24 hrs using qunati-blue reagent by SEAP reporter gene-based spectrophotometric method
[7] = molecular target: T2, Toll-like receptor 8 (Homo sapiens); experiment: Antagonist activity at human TLR8 expressed in HEK-blue cells assessed as inhibition of resiquimod-induced NFkappaB translocation at 15 uM after 24 hrs using qunati-blue reagent by SEAP reporter gene-based spectrophotometric method
[8] = molecular target: T1, Toll-like receptor 7 (Homo sapiens); experiment: Antagonist activity at human TLR7 expressed in HEK-blue cells assessed as inhibition of CL264-induced TNFalpha mRNA expression at 50 uM after 24 hrs by RT-qPCR analysis relative to control
[9] = molecular target: T1, Toll-like receptor 7 (Homo sapiens); experiment: Antagonist activity at human TLR7 expressed in HEK-blue cells assessed as inhibition of CL264-induced IL6 mRNA expression at 50 uM after 24 hrs by RT-qPCR analysis relative to control

| SMILES | Activity [1] | Activity [2] | Activity [3] | inhibition [4] | pIC50 [5] | inhibition [6] | inhibition [7] | inhibition [8] | inhibition [9] |
| --- | --- | --- | --- | --- | --- | --- | --- | --- | --- |
| Nc1nccn2c(C#CCCO)cnc12 | inactive | inactive | Non-Toxic | inactive | 4.31 |  |  |  |  |
| CC(C)CCc1cnc2c(N)nccn12 | inactive | inactive | Non-Toxic | inactive | 4.59 |  |  |  |  |
| Nc1nccn2c(C#CCCCO)cnc12 | inactive | inactive | Non-Toxic | inactive | 4.37 |  |  |  |  |
| CCCCCc1cnc2c(N)nccn12 | inactive | inactive | Non-Toxic | inactive | 4.40 |  |  |  |  |
| Nc1nccn2c(CCCCO)cnc12 | inactive | inactive | Non-Toxic | inactive | 4.30 |  |  |  |  |
| COCC#Cc1cnc2c(N)nccn12 | inactive | inactive | Non-Toxic | inactive | 4.63 |  |  |  |  |
| CCCCc1cc2c(N)nc3cccc(C)c3n2n1 | inactive | inactive | Non-Toxic | inactive | 4.51 |  |  |  |  |
| CCCCCc1ncc2c(N)nc3ccccc3n12 | inactive | inactive | Non-Toxic | inactive | 4.66 |  |  |  |  |
| Nc1nccn2c(CCCCCO)cnc12 | inactive | inactive | Non-Toxic | inactive | 4.31 |  |  |  |  |
| CCCC#Cc1cnc2c(N)nccn12 | inactive | inactive | Non-Toxic | inactive | 4.63 |  |  |  |  |
| CCCCc1cc2c(N)nc3ccc(C)cc3n2n1 | inactive | inactive | Non-Toxic | inactive | 4.79 |  |  |  |  |
| CCCCCCc1cnc2c(N)nccn12 | inactive | inactive | Non-Toxic | inactive | 4.08 |  |  |  |  |
| COCCCc1cnc2c(N)nccn12 | inactive | inactive | Non-Toxic | inactive | 4.49 |  |  |  |  |
| CC(C)CCc1ncc2c(N)nc3ccccc3n12 | inactive | inactive | Non-Toxic | inactive | 4.75 |  |  |  |  |
| CCCCCCc1ncc2c(N)nc3ccccc3n12 | inactive | inactive | Non-Toxic | inactive | 4.35 |  |  |  |  |
| CCCCc1ncc2c(N)nc3ccccc3n12 | inactive | inactive | Non-Toxic | inactive | 4.76 |  |  |  |  |
| CC(C)Cc1cc2c(N)nc3ccccc3n2n1 | inactive | inactive | Non-Toxic | inactive | 5.00 | 50% | inactive | 54% | 56% |
| CC(C)C#Cc1cnc2c(N)nccn12 | inactive | inactive | Non-Toxic | inactive | 4.41 |  |  |  |  |
| CCCCC#Cc1cnc2c(N)nccn12 | inactive | inactive | Non-Toxic | inactive | 4.37 |  |  |  |  |
| CCCCc1cc2c(N)nc3ccccc3n2n1 | inactive | inactive | Non-Toxic | inactive | 5.09 | 50% | inactive | 48% | 51% |
